# Columns and labels:
# [1] = tested on: A. fumigatus and C. albicans; assay: Disk diffusion, summary over A. fumigatus and C. albicans; type: cell-based; conditions: range over both fungi
# Method: (§1) The disk diffusion method was used for determination of the antimicrobial activity using ampicillin, gentamicin and amphotericin B as reference drugs. The results were recorded for each compounds as the average diameter as inhibition zones (IZ) of bacterial or fungal growth around the discs in mm as shown in Table 2.
# (§2) Antimicrobial activities were carried out against highly pathogenic strains; three strains of Gram positive bacteria (Bacillus subtilis, Staphylococcus aureus and Streptococcus faecalis), four strains of Gram negative bacteria (Escherichia coli, Neisseria gonorrhoeae, Pseudomonas aeruginosa and Salmonella typhimurium) and three fungi strains (Aspergillus flavus, Aspergillus fumigatus and Candida albicans) isolated from primary agar plates. Antimicrobial activity of the tested samples was determined using a modified Kriby-Bauer disk diffusion method. Briefly, 100 µL of the test bacteria/fungi were grown in 10 mL of fresh media until they reached a count approximately 10^8 cells/mL for bacteria or 10^5 cells/mL for fungi. 100 µL of microbial suspension was spread onto agar plates corresponding to the broth in which they were maintained. The inoculated plates of bacterial strains were incubated at 35–37 °C for 24–48 h, while the inoculated plates of fungal strains such as A. flavus and A. fumigatus were incubated at 25 °C for 48 h and yeast as C. albicans was incubated at 30 °C for 24–48 h.
# The agar disk diffusion (qualitative) method was used in this investigation for determination of the preliminary antibacterial and antifungal activities. The agar used was Mueller-Hinton agar plates that are rigorously tested for composition and pH. Further the depth of the agar in the plate is a factor to be considered in the disk diffusion method.
# Reference drugs: ampicillin was used as a standard antibacterial drug for Gram positive bacteria, gentamicin as a standard antibacterial drug for Gram negative bacteria and amphotericin B as antifungal standard drug.
# Bacterial and fungal strains were spread onto the surface of the agar plates using sterile cotton swabs. […]
# [2] = tested on: WI 38 (normal fibroblast cells); assay: In vitro cytotoxicity, SRB cell growth assay, normal cells WI 38; type: cell-based, human; conditions: 48 h exposure, non-cytotoxic = IC50 >100 μg/mL; for IC50: Homo sapiens, WI-38, 48 h
# Method: The in vitro cytotoxic activity of the newly synthesized compounds against human breast cell line (MCF7), non-small cell lung cancer NCIH460, CNS cancer SF-268 and WI 38 (normal fibroblast cells) were evaluated using doxorubicin as the reference drug according to the method reported by Skehan et al..
# The newly synthesized compounds were evaluated in vitro against three human cancer cell lines; which are MCF-7 (breast adenocarcinoma), NCI-H460 (non-small cell lung cancer) and SF-268 (CNS cancer), and WI 38 (normal fibroblast cells) were used in this study. MCF-7 was obtained from the European Collection of Cell Cultures (ECACC, Salisbury, UK) but NCI-H460, SF-268 and WI 38 were kindly provided by the National Cancer Institute (NCI, Cairo, Egypt). They grow as monolayer and routinely maintained RPMI-1640 medium supplemented with 5% heat inactivated fetal bovine serum (FBS), 2 mM glutamine and antibiotics (penicillin 100 U/mL, streptomycin 100 µg/mL), at 37 °C in a humidified atmosphere containing 5% CO2. Exponentially growing cells were obtained by plating 1.5 × 10^5 cells/mL for MCF-7 and SF-268, and 0.75 × 10^4 cells/mL for NCI-H460 followed by 24 h of incubation. The effect of the vehicle solvent (DMSO) on the growth of these cell lines was evaluated in all experiments by exposing untreated control cells to the maximum concentration (0.5%) of DMSO used in each assay.
# The effect of compounds on the in vitro growth of human tumor cell lines were evaluated according to the procedure adopted by the National Cancer Institute ([…]) in the “In vitro Anticancer Drug Discovery Screen” that uses the protein-binding dye sulforhodamine B (SRB) to assess cell growth. In the assay protocol, all cells were incubated at 37 °C under humidified atmosphere containing 5% CO2. Briefly, exponentially cells growing in 96-well plates were then exposed for 48 h to five serial concentrations of each compound, starting from a maximum concentration of 150 μg/mL. Following this exposure period adherent cells were fixed, washed and stained. The bound stain was solubilized and the absorbance was measured at 492 nm in a plate reader (Bio-Tek Instruments Inc., Power wave XS, Winston, NC, USA). For each test compound and cell line, a dose response curve was obtained and the inhibitory concentration of 50% (IC50), corresponding to the concentration of the compounds that inhibited 50% of the net cell growth was calculated as described elsewhere. Doxorubicin was used as a positive control and tested in the same manner.
# [3] = tested on: A. fumigatus and C. albicans; assay: MIC by broth dilution, summary over A. fumigatus and C. albicans; type: cell-based; conditions: range over both fungi
# Method: as §1
# (§3) In this study, MIC (quantitative method) was used for evaluation of the antimicrobial activity of tested compounds. Screening was evaluated in vitro using the Broth dilution method according to CLSI [45]. All the bacteria were incubated and activated at 30 °C for 24 h inoculation into nutrient broth and the fungi were incubated in malt extract broth for 48 h. The compounds were dissolved in DMSO and then diluted using […] Mueller-Hinton broth. […] In each case triplicate tests were performed and the average was taken as the final reading. The tubes were then inoculated with the test organisms, grown in their suitable broth at 37 °C for 24 h for tested microorganisms (1 × 10^8 CFU/mL for bacteria and 1 × 10^6 CFU/mL of fungi), each 5 mL received 0.1 mL of the above inoculum and incubated at 37 °C for 24 h.
# Salmonella typhimurium = assay: MIC by broth dilution, Salmonella typhimurium; type: cell-based; conditions: Salmonella enterica, TYPHIMURIUM, Gram negative, 0.98-125 µg/mL, read-out: Minimum Inhibitory Concentration (MIC) (µg/mL) Salmonella typhimurium
# Method: as §3
# Candida albicans = assay: MIC by broth dilution, Candida albicans; type: cell-based; conditions: Fungi, 0.98-125 µg/mL, read-out: Minimum Inhibitory Concentration (MIC) (µg/mL) Candida albicans
# Method: as §1, §3
# Aspergillus fumigatus = assay: MIC by broth dilution, Aspergillus fumigatus; type: cell-based; conditions: Fungi, 0.98-125 µg/mL, read-out: Minimum Inhibitory Concentration (MIC) (µg/mL) Aspergillus fumigatus
# Method: as §1, §3
# [4] = tested on: Gram positive and negative bacteria; assay: MIC by broth dilution, summary over bacterial strains; type: cell-based; conditions: range over bacterial strains as summarised in text
# Method: as §1, §3
# [5] = tested on: Gram positive and negative bacteria; assay: Disk diffusion, summary over bacterial strains; type: cell-based; conditions: range over bacterial strains as summarised in text
# Method: as §1
# as §2, with “The inoculated plates of bacterial strains were incubated at 35–37 °C for 24–48 h, while the inoculated plates of fungal strains such as A. flavus and A. fumigatus were incubated at 25 °C for 48 h and yeast as C. albicans was incubated at 30 °C for 24–48 h.” left out
SMILES,IZ range against A. fumigatus and C. albicans [1],IC50 [2],MIC range against A. fumigatus and C. albicans [3],MIC (Salmonella typhimurium),MIC (Candida albicans),MIC (Aspergillus fumigatus),melting point,MIC range against Gram positive and negative bacteria [4],IZ range against Gram positive and negative bacteria [5],IC50 (μg/mL) WI 38 [2]
"NNc1nc2ccc(Br)cc2nc1NN [Compound 9, 6-Bromo-2,3-dihydrazinylquinoxaline]",5–13 mm,30.6 ± 6.21 µg/mL,0.98 to 62.5 µg/mL,0.98 µg/mL,0.98 µg/mL,0.98 µg/mL,–,–,–,–
"NC1=NN(c2nc3ccc(Br)cc3nc2N2N=C(N)CC2=O)C(=O)C1 [Compound 16, 6-Bromo-2,3-bis(3-amino-1H-pyrazol-5(4H)-one)quinoxaline]",–,30 ± 2.36 µg/mL,–,1.95 µg/mL,–,–,232 to 233 °C,–,–,–
"Clc1nc2ccc(Br)cc2n2nnnc12 [Compound 4, 8-Bromo-4-chlorotetrazolo[1,5-a]quinoxaline]",–,> 100 µg/mL,–,0.98 µg/mL,3.9 µg/mL,–,199 to 201 °C,–,–,–
"Cc1cc(C)n(-c2nc3cc(Br)ccc3nc2NN)n1 [Compound 14, 6-Bromo-3-(3,5-dimethyl-1H-pyrazol-1-yl)-2-hydrazinyl quinoxaline]",–,58.7 ± 8.65 µg/mL,–,1.95 µg/mL,–,–,164 to 166 °C,–,–,–
"Brc1ccc2nc(N3CCCCC3)c3nnnn3c2c1 [Compound 5a, 8-Bromo-4-(piperidin-1-yl)tetrazolo[1,5-a]quinoxaline]",5–13 mm,> 100 µg/mL,0.98 to 62.5 µg/mL,31.2 µg/mL,62.5 µg/mL,31.2 µg/mL,122 to 123 °C,–,–,–
"NNc1nc2cc(Br)ccc2nc1Cl [Compound 3, 6-Bromo-2-chloro-3-hydrazinylquinoxaline]",–,32.2 ± 6.54 µg/mL,–,1.95 µg/mL,–,–,201 to 203 °C,0.98 to 125 µg/mL,13–15 mm,–
"Brc1ccc2c(c1)n1nnnc1c1nnnn21 [Compound 11, 9-Bromoditetrazolo[1,5-a:5′,1′-c]quinoxaline]",–,> 100 µg/mL,–,7.81 µg/mL,–,–,–,–,–,56.85 ± 4.05 µg/mL
"Brc1ccc2nc(N3CCOCC3)c3nnnn3c2c1 [Compound 5b, 8-Bromo-4-(morpholin-4-yl)tetrazolo[1,5-a]quinoxaline]",5–13 mm,> 100 µg/mL,0.98 to 62.5 µg/mL,1.95 µg/mL,3.9 µg/mL,1.95 µg/mL,144 to 146 °C,–,–,–
